Experimental data as given in patent US12097177B2, “Therapeutic method for cat with chronic kidney disease” (Toray Industries, Inc., priority 2021, dated 2024).
Read-outs that look alike come from different tables or passages of the source.

Key:
cats with CKD [1] = test: Retrospective observation study: period before progression into IRIS stage 4, BPS therapy vs No BPS therapy (Kaplan-Meier); type: in vivo, cat; settings: for 3-year stage progression-free rate: cats with CKD, twice daily
Experimental: To compare the periods before progression of feline CKD into stage 4 with BPS therapy and without BPS therapy, the following retrospective observation studies were performed. The studies were performed at Ichikawa General Hospital, Kariya Animal Hospital, Inc., that had adopted the electronic chart system for veterinary hospitals, Ahmics (trademark) (PetCommunications Co., Ltd.), and completely eliminated the use of paper charts before 2017. In this hospital, all-encompassing information concerning medical treatment such as test data, death records, and drug prescription records of all patient animals have been managed by the electronic chart system. Specifically, the data sets of 1,681 cats subjected to the serum creatinine test and the data sets of 1,399 cats subjected to the urinalysis from Apr. 1, 2017 to Dec. 10, 2020 were extracted. Among them, by excluding 951 cats without records, the data sets of 730 cats that were diagnosed to have CKD as a result of serum creatinine tests at least two times, urinalysis, and other clinical tests were extracted.
Based on the drug prescription records, cats were divided into two groups: a BPS therapy group consisting of 57 cats; and a BPS therapy-free group consisting of 77 cats, and the baseline characteristics and the periods before progression into stage 4 were compared and analyzed retrospectively. To the cats in the BPS therapy group, BPS drugs for veterinary use, RAPROS (trademark) (Toray Industries, Inc.), were administered while adjusting the amount of BPS to 14.1 to 52.4 μg/kg body weight/day and the median to 29.1 μg/kg body weight/day twice daily during or after morning and evening feeding occasions. […] Progression into stage 4 was examined by the method defined by the IRIS staging. Specifically, progression into stage 4 was determined based on serum creatinine or serum SDMA measured to be higher than 5.0 mg/dL or higher than 38 μg/dL, respectively, via two or more hospital visits. By designating progression into stage 4 as the outcome, the start date of treatment as the point of origin for the cats in the BPS therapy group, and the start date of observation as the point of origin for the cats in the No BPS therapy group, the periods (months) before the outcome was observed were recorded. In analysis, the 3-year stage progression-free rates (%) of the BPS therapy group and of the No BPS therapy group, the standard errors thereof, the 95% confidence intervals, and the comparison of the 3-year stage progression-free rates (%) between the groups were calculated. […] The average period (months) before progression into stage 4, the standard error thereof, the 95% confidence intervals, the medians and the standard errors thereof, the 95% confidence intervals, and the comparison of the average stage progression-free periods were calculated. Differences in the stage progression-free rates were assessed by the log rank test, the Cochran-Mantel-Haenszel test, by setting significant level at a two-tailed P-value of <0.05.
Based on the drug prescription records, cats were divided into two groups: a BPS therapy group consisting of 37 cats; and a BPS therapy-free group consisting of 332 cats, and the baseline characteristics and the periods before progression into stage 4 were compared and analyzed retrospectively. To the cats in the BPS therapy group, BPS drugs for veterinary use, RAPROS (trademark) (Toray Industries, Inc.), were administered while adjusting the amount of BPS to 18.5 to 42.3 μg/kg body weight/day and the median to 26.5 μg/kg body weight/day twice daily during or after morning and evening feeding occasions. Progression into stage 4 was examined by the method defined by the IRIS staging. Specifically, progression into stage 4 was determined based on serum creatinine or serum SDMA measured to be higher than 5.0 mg/dL or higher than 38 μg/dL, respectively, via two or more hospital visits. […]

cats with CKD [2] = test: Retrospective observation study: survival period / overall survival rate (all-cause death), BPS therapy vs No BPS therapy; type: in vivo, cat; settings: for average survival period / median survival period: Kaplan-Meier
Experimental: Based on the drug prescription records, cats were divided into two groups: a BPS therapy group consisting of 17 cats; and a BPS therapy-free group consisting of 67 cats, and baseline characteristics and the survival periods were compared and analyzed retrospectively. To the cats in the BPS therapy group, BPS drugs for veterinary use, RAPROS (trademark) (Toray Industries, Inc.), were administered while adjusting the amount of BPS to 20.0 to 49.1 μg/kg body weight/day and the median to 31.4 μg/kg body weight/day twice daily during or after morning and evening feeding occasions. By designating all-cause death as the outcome, the start date of treatment as the point of origin for the cats in the BPS therapy group, and the start date of observation as the point of origin for the cats in the No BPS therapy group based on the death records, the periods (months) before the outcome was observed were recorded. In analysis, the 2-year overall survival rates (%) of the BPS therapy group and of the No BPS therapy group, the standard errors thereof, the 95% confidence intervals, and the comparison of the 2-year overall survival rates (%) between the groups were calculated. […] Differences in the overall survival rates were assessed by the log rank test, the Cochran-Mantel-Haenszel test, by setting significant level at a two-tailed P-value of <0.05. […]
From among the cats with CKD, the data sets of […] having body weight of less than 3.5 kg were extracted, and the cats were divided into two groups: a BPS therapy group consisting of 19 cats; and a BPS therapy-free group consisting of 40 cats. In the same manner as described above, the 3-year overall survival rates (%) and the average survival periods were compared between the groups.

cats with CKD [3] = settings: 55 μg twice daily for at least 5 months, cited from earlier work
[4] = test system: patient with chronic renal failure; settings: BPS immediate release tablets; serum creatinine of 2.2 mg/dl or higher; cited from earlier work
[5] = stage 2 (serum creatinine 1.6 to 2.8 mg/dL)
[6] = stage 3 (serum creatinine 2.9 to 5.0 mg/dL)
[7] = stage 3 (serum creatinine 2.9 to 5.0 mg/dL), Kaplan-Meier
[8] = cats with CKD having body weight of less than 3.5 kg
[9] = stage 3 and body weight of less than 4.2 kg
[10] = first study, 26 cats (BPS group 11)
[11] = later study, 29 cats (BPS group 15)

CC#CCC(C)[C@H](O)/C=C/[C@@H]1[C@H]2c3cccc(CCCC(=O)[O-])c3O[C@H]2C[C@H]1O.[Na+] (some centres unmarked) [BPS, Beraprost sodium]
3-year stage progression-free rate (cats with CKD [1]; serum creatinine 1.6 to 2.8 mg/dL (stage 2), BPS 18.5 to 42.3 μg/kg body weight/day): 74.7% | 3-year stage progression-free rate (cats with CKD [1]; serum creatinine 2.9 to 5.0 mg/dL (stage 3), BPS 14.1 to 52.4 μg/kg body weight/day): 32.7% | 3-year stage progression-free rate of BPS therapy group relative to No BPS therapy group (cats with CKD [1]; [5]): 0.83 times | average stage progression-free period of BPS therapy group relative to No BPS therapy group (cats with CKD [1]; [5]): 0.93 times | effect on progression into stage 4 (cats with CKD [1]; stage 2 (serum creatinine 1.6 to 2.8 mg/dL) before initiation of administration): no effects of BPS administration to inhibit progression into stage 4 were observed | average period before progression into stage 4 (cats with CKD [1]; stage 2 (serum creatinine 1.6 to 2.8 mg/dL), Kaplan-Meier): 38.0 months | 3-year stage progression-free rate of BPS therapy group relative to No BPS therapy group (cats with CKD [1]; [6]): 1.25 times | average stage progression-free period of BPS therapy group relative to No BPS therapy group (cats with CKD [1]; [6]): 1.49 times | effect on progression into stage 4 (cats with CKD [1]; stage 3 (serum creatinine 2.9 to 5.0 mg/dL) before initiation of administration): effects of BPS administration to inhibit progression into stage 4 were observed | average period before progression into stage 4 (cats with CKD [1]; [7]): 26.5 months | median period before progression into stage 4 (cats with CKD [1]; [7]): 31.6 months | 3-year overall survival rate of BPS therapy group relative to No BPS therapy group (cats with CKD [2]; [8]): 2.90 times | average survival period of BPS therapy group relative to No BPS therapy group (cats with CKD [2]; [8]): 1.66 times | 3-year overall survival rate (cats with CKD [2]; cats with CKD, serum creatinine 1.6 to 2.8 mg/dL (stage 2)): 52.2% | 3-year overall survival rate (cats with CKD [2]; cats with CKD, serum creatinine 2.9 to 5.0 mg/dL (stage 3)): 33.5% | 2-year overall survival rate (cats with CKD [2]; cats with CKD, serum creatinine higher than 5.0 mg/dL (stage 4), BPS 20.0 to 49.1 μg/kg body weight/day, twice daily): 25.9% | 3-year overall survival rate of BPS therapy group relative to No BPS therapy group (cats with CKD [2]; stage 2): 0.72 times | average survival period of BPS therapy group relative to No BPS therapy group (cats with CKD [2]; stage 2): 0.90 times | average survival period (cats with CKD [2]; stage 2): 31.5 months | effect on overall survival rate or observed survival rate (cats with CKD [2]; stage 2 before initiation of administration): no effects of BPS administration to improve the overall survival rate or the observed survival rate were observed | average survival period of BPS therapy group relative to No BPS therapy group (cats with CKD [2]; stage 3): 1.54 times | 3-year overall survival rate of BPS therapy group relative to No BPS therapy group (cats with CKD [2]; stage 3 (Example 4)): 1.85 times | 3-year overall survival rate (cats with CKD [2]; stage 3 (serum creatinine 2.9 to 5.0 mg/dL) and body weight of less than 4.2 kg): 28.0% | average survival period (cats with CKD [2]; stage 3): 25.3 months | median survival period (cats with CKD [2]; stage 3): 23.4 months | average survival period of BPS therapy group relative to No BPS therapy group (cats with CKD [2]; [9]): 1.54 times | 3-year overall survival rate of BPS therapy group relative to No BPS therapy group (cats with CKD [2]; stage 3 and body weight of less than 4.2 kg (Example 6)): 2.77 times | effect on overall survival rate or observed survival rate (cats with CKD [2]; stage 3 and body weight of less than 4.2 kg before initiation of administration): effects of BPS administration to improve the overall survival rate or the observed survival rate were observed | average survival period (cats with CKD [2]; [9]): 22.4 months | median survival period (cats with CKD [2]; [9]): 19.8 months | effect on overall survival rate or observed survival rate (cats with CKD [2]; stage 3 before initiation of administration): effects of BPS administration to improve the overall survival rate or the observed survival rate were observed | 2-year overall survival rate of BPS therapy group relative to No BPS therapy group (cats with CKD [2]; stage 4): 4.80 times | average survival period of BPS therapy group relative to No BPS therapy group (cats with CKD [2]; stage 4): 2.43 times | average survival period (cats with CKD [2]; stage 4): 14.1 months | median survival period (cats with CKD [2]; stage 4): 10.2 months | effect on overall survival rate or observed survival rate (cats with CKD [2]; stage 4 before initiation of administration): effects of BPS administration to improve the overall survival rate or the observed survival rate were observed | effect of improving the survival rate vs renin-angiotensin system inhibitor group (cats with CKD [3]; [10]): higher than those in the renin-angiotensin system inhibitor group | effect of lowering the risk of 10% body weight loss vs renin-angiotensin system inhibitor group (cats with CKD [3]; [10]): higher than those in the renin-angiotensin system inhibitor group | effect of improving the survival rate vs renin-angiotensin system inhibitor group (cats with CKD [3]; [11]): no effects of improving the survival rate were observed | effect of lowering the risk of 10% body weight loss vs renin-angiotensin system inhibitor group (cats with CKD [3]; [11]): effects of lowering the risk of 10% body weight loss were observed | effects of BPS in chronic renal failure [4]: effects of BPS are not observed
